# ChEMBL document CHEMBL1177642, “Synthesis and antibacterial studies of binaphthyl-based tripeptoids. Part 2” (2010)
# Experiments:
# Format in all cases: functional
# [1] = tested on: Enterococcus faecium; assay: Antimicrobial activity against vancomycin-resistant Enterococcus faecium 449 after overnight incubation
# [2] = tested on: Enterococcus faecium; assay: Antimicrobial activity against vancomycin-resistant Enterococcus faecium 243 after overnight incubation
# [3] = tested on: Staphylococcus aureus; assay: Antimicrobial activity against methicillin-resistant Staphylococcus aureus ATCC 43300 after overnight incubation
# [4] = tested on: Enterococcus faecium; assay: Antimicrobial activity against vancomycin-resistant Enterococcus faecium 820 after overnight incubation
# [5] = tested on: Enterococcus faecium; assay: Antimicrobial activity against vancomycin-resistant Enterococcus faecium 987 after overnight incubation
SMILES,MIC50 [1] [µg/mL],MIC50 [2] [µg/mL],MIC50 [3] [µg/mL],MIC50 [4] [µg/mL],MIC50 [5] [µg/mL]
C=CCOc1ccc2ccccc2c1-c1c(OCC(=O)N[C@H](CCCCN)C(=O)N[C@H](CCCNC(=N)N)C(=O)N[C@@H](CC=C)C(=O)OCc2ccccc2)ccc2ccccc12.Cl.Cl,31.3,31.3,1.96,31.3,31.3
C=CC[C@H](NC(=O)[C@@H](CCCNC(=N)N)NC(=O)[C@@H](CCCCN)NC(=O)COc1ccc2ccccc2c1-c1c(OCc2ccccc2)ccc2ccccc12)C(=O)OCc1ccccc1.Cl.Cl,62.5,62.5,3.9,62.5,125
C=CC[C@H](NC(=O)[C@@H](CCCNC(=N)N)NC(=O)[C@@H](CCCCN)NC(=O)COc1ccc2ccccc2c1-c1c(OC)ccc2ccccc12)C(=O)OCc1ccccc1.Cl.Cl,62.5,125,7.8,62.5,125
C=CC[C@H](NC(=O)[C@@H](CCCNC(=N)N)NC(=O)[C@@H](CCCCN)NC(=O)COc1ccc2ccccc2c1-c1c(OCCCCC)ccc2ccccc12)C(=O)OCc1ccccc1.Cl.Cl,62.5,62.5,3.9,31.3,62.5
C=CC[C@H](NC(=O)[C@@H](CCCNC(=N)N)NC(=O)[C@@H](CCCCN)NC(=O)COc1ccc2ccccc2c1-c1c(OCC(C)C)ccc2ccccc12)C(=O)OCc1ccccc1.Cl.Cl,52.1,62.5,1.95,31.3,62.5
C=CC[C@H](NC(=O)[C@@H](CCCNC(=N)N)NC(=O)[C@@H](CCCCN)NC(=O)COc1ccc2ccccc2c1-c1c(OCC(C)(C)C)ccc2ccccc12)C(=O)OCc1ccccc1.Cl.Cl,62.5,62.5,3.9,31.3,83.3
C=CC[C@H](NC(=O)[C@@H](CCCNC(=N)N)NC(=O)[C@@H](CCCCN)NC(=O)COc1ccc2ccccc2c1-c1c(OCC2CCCCC2)ccc2ccccc12)C(=O)OCc1ccccc1.Cl.Cl,62.5,62.5,3.9,31.3,62.5
C[C@H](NC(=O)[C@@H](CCCNC(=N)N)NC(=O)[C@@H](CCCCN)NC(=O)COc1ccc2ccccc2c1-c1c(O)ccc2ccccc12)C(=O)OCc1ccccc1.Cl.Cl,52.1,125,7.8,62.5,125
C=CC[C@H](NC(=O)[C@@H](CCCNC(=N)N)NC(=O)[C@@H](CCCCN)NC(=O)COc1ccc2ccccc2c1-c1c(OCCCc2ccccc2)ccc2ccccc12)C(=O)OCc1ccccc1.Cl.Cl,31.3,62.5,3.9,31.3,62.5
CCCCCCCCOc1ccc2ccccc2c1-c1c(OCC(=O)N[C@H](CCCCN)C(=O)N[C@H](CCCNC(=N)N)C(=O)N[C@@H](CC(C)C)C(=O)OCc2ccccc2)ccc2ccccc12.Cl.Cl,125,125,13,62.5,125
CC(C)CCOc1ccc2ccccc2c1-c1c(OCC(=O)N[C@H](CCCCN)C(=O)N[C@H](CCCNC(=N)N)C(=O)N[C@@H](CC(C)C)C(=O)Oc2ccccc2)ccc2ccccc12.Cl.Cl,15.6,15.6,3.9,7.8,15.6
CC(C)CCOc1ccccc1-c1ccccc1OCC(=O)N[C@H](CCCCN)C(=O)N[C@H](CCCNC(=N)N)C(=O)N[C@@H](CC(C)C)C(=O)OCc1ccccc1.Cl.Cl,31.3,31.3,1.95,31.3,31.3
C=CCOc1ccc2ccccc2c1-c1c(OCC(=O)OCC)ccc2ccccc12,31.3,31.3,3.9,31.3,62.5
C=CC[C@H](NC(=O)[C@@H](CCCNC(=N)N)NC(=O)[C@@H](CCCCN)NC(=O)COc1ccc2ccccc2c1-c1c(OCC2CCC2)ccc2ccccc12)C(=O)OCc1ccccc1.Cl.Cl,52.1,62.5,3.9,31.3,62.5
CC(C)C[C@H](NC(=O)[C@@H](CCCNC(=N)N)NC(=O)[C@@H](CCCCN)NC(=O)COc1ccc2ccccc2c1-c1c(OCC#N)ccc2ccccc12)C(=O)OCc1ccccc1.Cl.Cl,31.3,62.5,3.9,31.3,62.5
CC(C)C[C@H](NC(=O)[C@@H](CCCNC(=N)N)NC(=O)[C@@H](CCCCN)NC(=O)COc1ccc2ccccc2c1-c1c(OCCC2CC2)ccc2ccccc12)C(=O)OCc1ccccc1.Cl.Cl,31.3,125,3.9,62.5,62.5
CC(C)C[C@H](NC(=O)[C@@H](CCCNC(=N)N)NC(=O)[C@@H](CCCCN)NC(=O)COc1ccc2ccccc2c1-c1c(OCCc2ccccc2)ccc2ccccc12)C(=O)OCc1ccccc1.Cl.Cl,31.3,31.3,5.2,15.6,31.3
COCCOc1ccc2ccccc2c1-c1c(OCC(=O)N[C@H](CCCCN)C(=O)N[C@H](CCCNC(=N)N)C(=O)N[C@@H](CC(C)C)C(=O)OCc2ccccc2)ccc2ccccc12.Cl.Cl,31.3,125,3.9,62.5,62.5
CN[C@H](CC(C)C)C(=O)N[C@H]1C(=O)N[C@@H](CC(N)=O)C(=O)N[C@H]2C(=O)N[C@H]3C(=O)N[C@H](C(=O)N[C@H](C(=O)O)c4cc(O)cc(O)c4-c4cc3ccc4O)[C@H](O)c3ccc(c(Cl)c3)Oc3cc2cc(c3O[C@@H]2O[C@H](CO)[C@@H](O)[C@H](O)[C@H]2O[C@H]2C[C@](C)(N)[C@H](O)[C@H](C)O2)Oc2ccc(cc2Cl)[C@H]1O [VANCOMYCIN],62.5,1.95,1.95,> 125,< 0.98
